From article PMC10997755, “Discovery of a small-molecule inhibitor that traps Polθ on DNA and synergizes with PARP inhibitors” (Nature Communications, 2024) come the findings set out here.

The target in one test is T1, PolθΔL (Homo sapiens, UniProt O75417, C1895G/DEL1861-1870/DEL1873-1894/DEL1918-1929/DEL2146-2157/DEL2161-2173/DEL2261-2287/DEL2291-2305/DEL2513-2514/DEL2518-2524/F2289G/F2526G/L1930G/L2158G/L2516G/M2525G/P1932S/P1933G/R2175G/R2306G/S1934G/V1931G).
T1 construct: The gene encoding Polθ-pol (residues 1819–2590) was cloned into a pSUMOstar vector; 6xHis (N, cleaved yes); SUMO (N); made in house; host or cells: E. coli BL21(DE3)
Put plainly: PolθΔL primer extension. It counts as biochemical.

A further test deals with BRCA2-WT cells. Put plainly: Clonogenic assay (number of colonies counted). The conditions noted are these: three replicates. It counts as cell-based.
A further test concerns BRCA2-NULL cells. The test can be described thus: Clonogenic assay (number of colonies counted). To be noted: three replicates. It counts as cell-based. From the text: Supplement 41467_2024_46593_MOESM7_ESM.xlsx, sheet "Supplem 1 b" | column: BRCA2-NULL
A further test has as its target T2, Polθ-pol:DNA/DNA complex (Homo sapiens, UniProt O75417).
T2 construct: purified recombinant human Polθ-pol (comprising amino acid residues 1792–2590); made in house
T2 sequence (O75417 1792-2590): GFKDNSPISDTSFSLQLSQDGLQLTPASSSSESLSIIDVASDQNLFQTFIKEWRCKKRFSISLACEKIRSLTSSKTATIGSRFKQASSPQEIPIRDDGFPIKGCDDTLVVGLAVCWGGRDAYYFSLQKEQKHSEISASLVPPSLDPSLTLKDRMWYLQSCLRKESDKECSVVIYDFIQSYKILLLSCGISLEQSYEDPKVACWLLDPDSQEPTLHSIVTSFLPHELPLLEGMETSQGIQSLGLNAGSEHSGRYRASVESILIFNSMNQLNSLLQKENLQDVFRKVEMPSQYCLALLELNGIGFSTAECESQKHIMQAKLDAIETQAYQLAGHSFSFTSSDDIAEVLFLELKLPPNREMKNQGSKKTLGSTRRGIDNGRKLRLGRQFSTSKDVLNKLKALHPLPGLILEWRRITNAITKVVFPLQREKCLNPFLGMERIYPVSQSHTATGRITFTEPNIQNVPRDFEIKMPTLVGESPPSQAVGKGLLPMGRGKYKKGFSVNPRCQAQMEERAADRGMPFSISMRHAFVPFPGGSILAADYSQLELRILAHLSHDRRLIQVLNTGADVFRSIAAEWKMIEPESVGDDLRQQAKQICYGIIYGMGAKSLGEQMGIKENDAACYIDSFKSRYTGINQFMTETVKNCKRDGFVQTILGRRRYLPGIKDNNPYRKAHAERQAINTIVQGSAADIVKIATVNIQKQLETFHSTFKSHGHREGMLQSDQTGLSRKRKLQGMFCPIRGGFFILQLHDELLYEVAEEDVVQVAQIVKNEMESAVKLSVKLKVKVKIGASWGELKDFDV
Put plainly: EcoRI endonuclease protection assay.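 For i+1 (%) (15 nt), replicates #1-#3: i+1 is one-nucleotide extended DNA within post-catalytic complexes.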 Format: biochemical. To be noted: for EcoRI cleavage %, ave / EcoRI cleavage %, replicates #1-#3: Eco+pol+ddC+RTx compound; for cleavage normalized to 100%, i: 14 nt i; for cleavage normalized to 100%, i+1: 15 nt i+1; for i (%) (14 nt), replicates #1-#3 / i (%), normalized to 100%, ave(%) / i+1 (%) (15 nt), replicates #1-#3 / i+1 (%) normalized to 100%, ave(%): pol+ddC+compound. How it is done: EcoRI and KpnI endonucleases assay: 25 nM 5’-^32P radiolabeled primer-template DNA Sc15-EcoRI (5’-^32P LM3-EcoRI/LM4-EcoRI) or Sc19-KpnI (5’-^32P LM11-Kpn/LM12-Kpn) in reaction buffer (25 mM Tris-HCl pH 7.5, 10 mM MgCl2, 10% glycerol, 0.1 mg/mL BSA, 0,01% igepal, 1 mM DTT) were incubated in the presence or in the absence of 50 nM Polθ-pol, 100 μM ddCTP, and 10 μM inhibitors, as indicated, for 5 min at room temperature. Next, 0.08 U/μL EcoRI or KpnI together with 500 nM “trapping” DNA Sc14 (RP559/RP702) were added and incubated for further 0–40 min at 30 °C as indicated. 10 nM PolθΔcen and FL-Polθ and 25 nM Sc15-EcoRI and Sc19-Kpn were probed with 0.04 U/μL EcoRI or KpnI (both from New England Biolabs) using the same conditions. Reactions were stopped by addition of formamide loading buffer with 50 mM EDTA, resolved in denaturing 20% urea PAAG and analyzed using Typhoon PhosphorImager (GE Amersham). Quantification was done in ImageQuant TL software. All quantified experiments were performed in triplicates and plotted as mean with ± s.d using GraphPad Prism 9 software.

A further test concerns Polε. The test can be described thus: Primer extension by recombinant Pols (selectivity). Format: biochemical.

Several values for one entry are separate records, joined by “and”; a condition that tells them apart may be missing. Identical values can stand only once.

T1 sequence (O75417 with tags, fused parts or gaps with the stated changes): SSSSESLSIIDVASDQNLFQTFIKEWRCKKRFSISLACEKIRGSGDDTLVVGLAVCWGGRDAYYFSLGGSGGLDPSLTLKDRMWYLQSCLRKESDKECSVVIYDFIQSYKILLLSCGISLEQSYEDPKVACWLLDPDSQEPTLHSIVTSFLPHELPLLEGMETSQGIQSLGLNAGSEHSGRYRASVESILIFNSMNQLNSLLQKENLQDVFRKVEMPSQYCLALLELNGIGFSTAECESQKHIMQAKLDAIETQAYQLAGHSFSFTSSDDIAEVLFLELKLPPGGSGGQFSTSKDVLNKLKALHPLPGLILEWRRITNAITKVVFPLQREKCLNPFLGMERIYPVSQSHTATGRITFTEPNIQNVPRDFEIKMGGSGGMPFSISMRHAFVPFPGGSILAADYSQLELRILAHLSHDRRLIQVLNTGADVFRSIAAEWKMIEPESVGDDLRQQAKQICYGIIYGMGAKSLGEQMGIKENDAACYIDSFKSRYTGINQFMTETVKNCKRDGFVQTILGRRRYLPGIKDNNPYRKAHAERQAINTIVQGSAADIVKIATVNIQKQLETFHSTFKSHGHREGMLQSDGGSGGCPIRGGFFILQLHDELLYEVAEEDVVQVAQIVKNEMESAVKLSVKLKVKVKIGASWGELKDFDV

Take `CN(C(=O)Oc1ccc(C(F)(F)F)cc1C(F)(F)F)c1ccc(F)cc1` [MC160385]: the “inhibition of PolθΔL primer extension” value against PolθΔL is listed as “inhibits”. Also, the “number of olonies counted” value in the test on BRCA2-WT cells (MC160385 2.5 μM) is 84 and 87 and 85; in the test on BRCA2-WT cells (MC160385 5 μM), 82 and 86 and 83; in the test with BRCA2-WT cells (MC160385 10 μM), 80 and 84 and 82; with BRCA2-WT cells (MC160385 20 μM) it was 79 and 84 and 80; in the test on BRCA2-NULL cells (MC160385 2.5 μM), 67 and 60 and 64; with BRCA2-NULL cells (MC160385 5 μM), 56 and 64 and 62. The “number of olonies counted” value is 57 and 62 and 60 in the test on BRCA2-NULL cells (MC160385 10 μM); 59 and 56 and 58 in the test with BRCA2-NULL cells (MC160385 20 μM).

Regarding `CN1CCN(c2cc(C(F)(F)F)cc(C(F)(F)F)c2OC(=O)N(C)c2ccc(F)cc2)C1=O` [RTx-152], on Polθ-pol:DNA/DNA complex (10 μM inhibitor, ddCTP), the “suppression of EcoRI cleavage” value is on record as “strong suppression of endonuclease cleavage” and the “time Polθ-pol is trapped on DNA/DNA (EcoRI cleavage suppressed)” value is over 40 min. At Polθ-pol:DNA/DNA complex (2.5min), the “EcoRI cleavage %, ave” value came out at 2.1%; the “EcoRI cleavage %, replicates #1-#3” value was 3.0% and 2.0% and 1.2%; the “i (%) (14 nt), replicates #1-#3” value is 25.8% and 27.6% and 28.2%; the “i (%), normalized to 100%, ave(%)” value was 100.0%. Further, on Polθ-pol:DNA/DNA complex (2.5min), the “i+1 (%) (15 nt), replicates #1-#3” value was 59.7% and 57.2% and 58.7%; the “i+1 (%) normalized to 100%, ave(%)” value was found to be 100.0%. At Polθ-pol:DNA/DNA complex (5min), the “EcoRI cleavage %, ave” value came to 2.5%; the “EcoRI cleavage %, replicates #1-#3” value was 3.0% (2×) and 1.4%; the “i (%) (14 nt), replicates #1-#3” value was 22.2% and 22.6% and 25.1%; the “i (%), normalized to 100%, ave(%)” value turned out to be 85.6%. At Polθ-pol:DNA/DNA complex (5min), the “i+1 (%) (15 nt), replicates #1-#3” value was 63.6% and 59.1% and 62.1%; the “i+1 (%) normalized to 100%, ave(%)” value is 105.2%. In addition, on Polθ-pol:DNA/DNA complex (10min), the “EcoRI cleavage %, ave” value was determined as 4.6%; the “EcoRI cleavage %, replicates #1-#3” value was 5.0% (2×) and 3.7%; the “i (%) (14 nt), replicates #1-#3” value was 15.4% and 16.3% and 17.9%; the “i (%), normalized to 100%, ave(%)” value was 60.8%. At Polθ-pol:DNA/DNA complex (10min), the “i+1 (%) (15 nt), replicates #1-#3” value is 68.8% and 63.1% and 66.7%; the “i+1 (%) normalized to 100%, ave(%)” value was determined as 113.1%. At Polθ-pol:DNA/DNA complex (pol+ddC+152, 0 min), this compound had an EcoRI cleavage % of 0.0%. On Polθ-pol:DNA/DNA complex (pol+ddC+152, 5 min), the EcoRI cleavage % turned out to be 3.0%; the “cleavage normalized to 100%, i” value is recorded as 100.0%; the “cleavage normalized to 100%, i+1” value is 100.0%. At Polθ-pol:DNA/DNA complex (pol+ddC+152, 10 min), the EcoRI cleavage % was found to be 3.7%; the “cleavage normalized to 100%, i” value is on record as 75.0%; the “cleavage normalized to 100%, i+1” value was 110.0%. Further, at Polθ-pol:DNA/DNA complex (pol+ddC+152, 20 min), the EcoRI cleavage % is recorded as 5.7%; the “cleavage normalized to 100%, i” value stood at 48.0%; the “cleavage normalized to 100%, i+1” value came to 119.0%. For the same compound, at Polθ-pol:DNA/DNA complex (pol+ddC+152, 40 min), the EcoRI cleavage % is reported as 9.5%; the “cleavage normalized to 100%, i” value stood at 25.0%; the “cleavage normalized to 100%, i+1” value was determined as 124.0%.

Regarding `CN(C(=O)Oc1c(N2CCN(CCO)C2=O)cc(C(F)(F)F)cc1C(F)(F)F)c1ccc(F)cc1` [RTx-161], in the test on Polε (Pol Epsilon), the “% Full Extension” value turned out to be 91.14%, the “% Inhibition Compared to Control” value is reported as -0.19% and the “% Relative Maximum Extension” value is reported as 100.19%. Moreover, the “inhibition of primer extension” value with Polε (selectivity panel, Pol named in Supplementary Fig. 1h) is “no inhibition”. The “time Polθ-pol is trapped on DNA/DNA (EcoRI cleavage suppressed)” value at Polθ-pol:DNA/DNA complex (10 μM inhibitor, ddCTP) was over 10 min. For the same compound, on Polθ-pol:DNA/DNA complex (2.5min), the “EcoRI cleavage %, ave” value is 4.0%; the “EcoRI cleavage %, replicates #1-#3” value was 5.8% and 3.2% and 4.2%; the “i (%) (14 nt), replicates #1-#3” value is 25.2% and 24.9% and 24.6%; the “i (%), normalized to 100%, ave(%)” value worked out at 100.0%. Moreover, on Polθ-pol:DNA/DNA complex (2.5min), the “i+1 (%) (15 nt), replicates #1-#3” value is 53.9% and 59.3% and 59.1%; the “i+1 (%) normalized to 100%, ave(%)” value was 100.0%. Further, at Polθ-pol:DNA/DNA complex (5min), the “EcoRI cleavage %, ave” value was found to be 6.0%; the “EcoRI cleavage %, replicates #1-#3” value was 8.0% and 4.6% and 4.9%; the “i (%) (14 nt), replicates #1-#3” value was 21.5% and 21.2% and 20.7%; the “i (%), normalized to 100%, ave(%)” value was found to be 85.0%. For the same compound, on Polθ-pol:DNA/DNA complex (5min), the “i+1 (%) (15 nt), replicates #1-#3” value is 55.1% and 61.3% and 62.4%; the “i+1 (%) normalized to 100%, ave(%)” value was found to be 103.8%. On Polθ-pol:DNA/DNA complex (10min), the “EcoRI cleavage %, replicates #1-#3” value was 9.0% and 6.1% and 7.3%; the “i (%) (14 nt), replicates #1-#3” value was 11.4% and 15.0% and 15.5%; the “i (%), normalized to 100%, ave(%)” value worked out at 56.1%; the “i+1 (%) (15 nt), replicates #1-#3” value was 66.5% and 64.8% and 64.7%. Also, the “i+1 (%) normalized to 100%, ave(%)” value on Polθ-pol:DNA/DNA complex (10min) amounted to 113.8%.
